# Data from US9820988B2, “Treatment of epileptic disorders in feline animals” (Boehringer Ingelheim Vetmedica GmbH, priority 2014, dated 2017).
# Like-named read-outs stand apart in the source and are kept apart here.
# Assays:
# [1] = system: healthy cats; details: 20 mg/kg dose; cited from earlier work
# [2] = system: feline amygdala or hippocampal kindled seizures; details: partial onset and secondarily generalized limbic seizures; cited from earlier work
# [3] = system: treated cats; details: cited from earlier work
# [4] = system: cats with epileptic disorders; experiment: Efficacy 3: imepitoin versus phenobarbital in two groups of cats with epileptic disorders
# [5] = Pharmacokinetics of imepitoin in cats after oral administration (Example 1); type: in vivo, cat; details: for Tmax / Cmax / AUC(0-t): po; for Tmax: 30 mg/kg; for Cmax / AUC(0-t): Day 0, first dose of 30 mg/kg; for AUC(0-t): read-out: AUC0-6h
# Experimental: FIG. 1 Mean plasma concentration-time curves of imepitoin after the first oral dose of 30 mg/kg imepitoin in male (M) and female cats (F) at Day 0, Day 14 and Day 29 (semi-logarithmic scale).
# When administered orally at a preferred dose of e.g. 30 mg/kg bodyweight twice daily (60 mg/kg bodyweight daily dose) imepitoin the highest plasma concentration […] is reached in median 1 hour (range 0.5 to 3 hours) after administration, in most cases 1 hour.
# Corresponding AUC0-6h-values are 28001 ng·h/mL and 24467 ng·h/mL, respectively.
# [6] = system: clinically healthy male and female cats; experiment: Safety 1: tolerance in clinically healthy cats after repeated oral administration for 30 days; type: in vivo, cat
# Description: In a randomized, controlled, blinded study the tolerance of imepitoin is investigated in clinically healthy male and female cats after repeated oral administration for 30 days.
# Twelve 1-3 years old, male and female domestic short hair cats with a body weight range of 2.8-4.4 kg are assigned to this study. The animals are randomly allocated to two groups, three male and three female animals per group. The test article (imepitoin) is orally administered to the animals of group II at a target dose of 30 mg imepitoin/kg bodyweight twice daily at an interval of 8-12 h on days 0-29. Group I is left untreated serving as controls.
# [7] = system: clinically healthy male and female cats; experiment: Safety 2: repeated oral administration of 40 and 80 mg/kg twice daily for 30 days, placebo controlled; type: in vivo, cat
# Experimental: FIG. 3 Measurement of Alkaline Phosphatase (AP) in serum following administration of imepitoin in doses of 40 or 80 mg/kg bodyweight twice daily, or placebo. AP is routinely used to judge liver function and diagnose liver pathologies, and an elevated AP is indicative for a variety of diseases. […] Day 0 reflects measurement before treatment start.
# Eighteen 9 months old, male and female domestic short hair cats with a body weight range of 2.3-4.9 kg are assigned to this study. The animals are allocated to three test groups employing a pseudo-random body weight stratification procedure that yielded groups with approximately equal mean body weight, with three male and three female animals per group. The test article (imepitoin) is orally administered to the animals at a target dose of 40 mg imepitoin/kg bodyweight and 80 mg imepitoin/kg bodyweight twice daily at an interval of 8-12 h on days 0-30. The third group receives visually identical placebo tablets, to avoid identification of the Placebo Group.
# Physical examination a day before treatment start and on study days 7, 14 and 30 includes body temperature (rectal), ocular system, musculoskeletal system, cardiovascular system, reproductive system, lymphatic system, behavior, nervous system, integumentary system, respiratory system, urinary system and gastro-intestinal system. In addition, blood and urine samples are analyzed before treatment and after 30 days.
# [8] = system: cats with epilepsy; experiment: Efficacy 1: two cats diagnosed with epilepsy, severe generalized seizures; type: in vivo, cat
# Experimental: Two cats are diagnosed with epilepsy, having severe generalized seizures.
# The first cat, a 14 year old European Short-Hair cat, had two severe generalized seizures. Both lasted around two minutes, the cat lost consciousness and was disoriented after the seizure. In addition, a fibrosarcoma and hyperthyroidism was diagnosed. The cat was treated twice a day with 100 mg imepitoin, being a dose of 25 mg/kg bodyweight. […] This resolved spontaneously after 10 days of treatment.
# The second cat, 7 years old, experienced two generalized seizures on two consecutive days, and the diagnosis was epilepsy of unknown cause. The cat appeared to be sleepier in the time before occurrence of first seizure.
# [9] = system: feline patients with epilepsy; experiment: Efficacy 2: seizure frequency and severity in feline patients versus untreated status at diagnosis; type: in vivo, cat
# Description: In some animals, treatment with current standard of care, phenobarbital, is not effective and results in frequent severe seizures despite high-dose treatment.
# [10] = system: cats with drug resistant epilepsy; experiment: Efficacy 4: cats with drug-resistant (phenobarbital) epileptic disorders switched to imepitoin; type: in vivo, cat
# Experimental: Cats with epileptic disorders are treated with increasing doses of phenobarbital, starting from 3 mg/kg bodyweight twice daily up to the maximum tolerated dose. […] According to this treatment failure this represents drug-resistant epileptic disorders. The treatment of these cats with drug resistant epilepsy is now changed to imepitoin, provided at high doses as for example 30 mg/kg bodyweight twice daily.
# [11] = imepitoin 30 mg/kg twice daily, phenobarbital 3.5 mg/kg twice daily
# [12] = female, domestic short hair, plasma, females (n=3)
# [13] = male, domestic short hair, plasma, males (n=3)
# [14] = 30 mg/kg bodyweight twice daily, days 0-29
# [15] = 40 and 80 mg/kg body weight twice daily for 30 days
# [16] = 40 and 80 mg/kg body weight twice daily, after 30 days
# [17] = second cat, 10 mg/kg bodyweight twice daily
# [18] = second cat, 20 mg/kg bodyweight twice daily
smiles,measurement,setting,value
NS(=O)(=O)Cc1noc2ccccc12 [zonisamide],"share of healthy cats with adverse reactions (anorexia, diarrhea, vomiting, somnolence, ataxia)",[1],Approximately half
NCC(CC(=O)O)c1ccc(Cl)cc1 (stereo not shown) [baclofen],anticonvulsant effect on kindled seizures,[2],did not show anticonvulsant effects
NC(=O)CCC/N=C(\c1ccc(Cl)cc1)c1cc(F)ccc1O [progabide],anticonvulsant effect on kindled seizures,[2],potent anticonvulsant effects
CCC1(c2ccccc2)C(=O)NC(=O)NC1=O [phenobarbital],treated cases with sedation,"[3]; cats, recent study (Pakozdy et al. 2013)",over 40%
same,cats poorly controlled / disease not adequately controlled,[4]; [11],30%
same,cats with well controlled epilepsy/seizures,[4]; [11],70%
same,treated cats experiencing at least one adverse event,[4]; [11],65%
same,treated cats experiencing sedation as side effect,[4]; phenobarbital 3.5 mg/kg bodyweight twice daily,approximately 40%
C=CC(N)CCC(=O)O (stereo not shown) [gamma-vinyl GABA],anticonvulsant effect on kindled seizures,[2],potent anticonvulsant effects
Cl.O=C(O)C1CCCN(CCC=C(c2ccccc2)c2ccccc2)C1 (stereo not shown) [SKF89976A],anticonvulsant effect on kindled seizures,[2],potent anticonvulsant effects
"O=C1N=C(N2CCOCC2)CN1c1ccc(Cl)cc1 [imepitoin, 1-(4-chlorophenyl)-4-(4-morpholinyl)-2,5-dihydro-1H-imidazol-2-one]",accumulation upon long-term BID dosing,"[5]; 30 mg/kg twice daily, Days 0-29",no accumulation occurs
same,exposure compared to the first dosing day,[5]; after 14 and 29 days of twice daily dosing,slightly lower exposure
same,Tmax,"[5]; both sexes, domestic short hair, plasma, oral, 30 mg/kg bodyweight twice daily, read-out: tMax, median",1 h
same,Tmax,"[5]; both sexes, domestic short hair, plasma, oral, 30 mg/kg bodyweight twice daily, read-out: tMax, range",0.5 to 3 h
same,half-life,"[5]; both sexes, domestic short hair, plasma, oral, 30 mg/kg bodyweight twice daily, read-out: half-life time t1/2 (converted)",1.5 h
same,Cmax,[5]; [12],6640 ng/mL
same,AUC(0-t),[5]; [12],24500 ng·h/mL
same,Cmax,[5]; [13],7050 ng/mL
same,AUC(0-t),[5]; [13],28000 ng·h/mL
same,time of last measurable concentration,[5]; oral 30 mg/kg,more than 18 hours
same,liver enzyme measurements versus untreated control,"[6]; 30 mg/kg bodyweight twice daily, FIGS. 2A+2B",no difference between imepitoin-treated and untreated (control) animals
same,Mortality,[6]; [14],not observed
same,"effect on body weight development, food and water consumption, heart rate, respiratory rate and laboratory parameters (hematology, clinical chemistry, urinalysis)",[6]; [14],No evidence of a clear effect
same,sedation,[6]; [14],No sedation is observed in any animal
same,animals with temporary vomitus or choking,"[6]; 30 mg/kg twice daily, from the second week of treatment onwards",3 of 6
same,behavioral changes or sedation,[7]; [15],not noted
same,considerable adverse events,[7]; [15],no considerable adverse events are observed
same,emesis,[7]; [15],intermittently observed in the second and third week of treatment
same,tolerability,[7]; [15],well tolerated by all cats
same,hematological or biochemical abnormalities in blood examination,[7]; [16],No hematological or biochemical abnormalities are noted
same,urine analysis,[7]; [16],physiological results
same,Alkaline Phosphatase (AP) in serum,"[7]; 40 or 80 mg/kg bodyweight twice daily, FIG. 3",in the physiological range with normal variance
same,considerable adverse events,"[8]; first cat, 25 mg/kg bodyweight twice a day",No considerable adverse events were observed
same,tiredness,"[8]; first cat, 25 mg/kg bodyweight twice a day, initially","tiredness 1-1.5 hours after application of the drug, which lasted for about two hours"
same,duration of complete seizure freedom (observation period),"[8]; first cat, 25 mg/kg then 20 mg/kg bodyweight twice a day",6 months
same,seizures under treatment,"[8]; first cat, 14 years, 100 mg (25 mg/kg bodyweight) twice a day",no further seizures
same,tiredness after dose reduction,"[8]; first cat, dose reduced to 20 mg/kg bodyweight after three months",the tiredness disappeared
same,seizures under treatment,[8]; [17],experienced again a seizure
same,tiredness,[8]; [17],resolved the tiredness
same,duration of complete seizure freedom (observation period),[8]; [18],2.5 months
same,tiredness or other adverse events,[8]; [18],No tiredness or other adverse events were observed
same,tiredness,"[8]; second cat, 30 mg/kg bodyweight twice a day",showed the tiredness observed in the first cat already after treatment start
same,response to treatment,"[8]; second cat, 7 years, 30 mg/kg bodyweight twice a day",responded immediately to treatment
same,seizure frequency and severity compared to untreated status at diagnosis,[9]; 30 mg/kg bodyweight twice daily,significantly reduced
same,cats achieving seizure freedom,[9]; 30 mg/kg bodyweight twice daily at an interval of 8-14 hours,at least 40%
same,considerable adverse events,"[9]; 30 mg/kg bodyweight twice daily, seizure-free cats",do also not experience considerable adverse events
same,seizure frequency and/or severity in animals in which phenobarbital is not effective,[9]; 20 to 60 mg/kg bodyweight two- or three-times daily,reduces seizure frequency and/or severity significantly
same,reduction of seizure frequency,"[10]; after change to imepitoin 30 mg/kg bodyweight twice daily, in most cases",at least 50%
same,seizure status after transition from phenobarbital to imepitoin monotherapy,[10]; cats with uncontrolled or continuing seizures under phenobarbital,became seizure free
same,seizure freedom among well controlled cats,[4]; imepitoin 30 mg/kg bodyweight twice daily,the majority of them reach seizure freedom
same,cats poorly controlled / disease not adequately controlled,[4]; [11],about 15%
same,cats with well controlled epilepsy/seizures,[4]; [11],85%
CC[C@@H](C(N)=O)N1CCCC1=O [Levetiracetam],efficacy as add-on therapy,"[3]; cats with refractory epilepsy under phenobarbital treatment, 10 cats",somewhat effective
[Br-].[K+] [Bromide],treated cats with idiosyncratic allergic pneumonitis,[3]; cats,35-42%
same,treated cats with seizures controlled,[3]; cats,about 35%
